Laboratory results published in US20040019118A1, “NMDA receptor antagonists and their use in inhibiting abnormal hyperphosphorylation of microtubule associated protein tau” (priority 2002, published 2004).
“Also recorded” adds a separate entry of the source.

Key:
PP-2A = biological target: T1, PP-2A (Rattus norvegicus, UniProt P63331); test: PP-2A activity in extracts of treated hippocampal slice cultures; assay type: cell-based
T1 construct: from tissue; host or cells: organotypic culture of adult rat hippocampal slices; 16,000xg extract
T1 sequence (P63331 whole entry): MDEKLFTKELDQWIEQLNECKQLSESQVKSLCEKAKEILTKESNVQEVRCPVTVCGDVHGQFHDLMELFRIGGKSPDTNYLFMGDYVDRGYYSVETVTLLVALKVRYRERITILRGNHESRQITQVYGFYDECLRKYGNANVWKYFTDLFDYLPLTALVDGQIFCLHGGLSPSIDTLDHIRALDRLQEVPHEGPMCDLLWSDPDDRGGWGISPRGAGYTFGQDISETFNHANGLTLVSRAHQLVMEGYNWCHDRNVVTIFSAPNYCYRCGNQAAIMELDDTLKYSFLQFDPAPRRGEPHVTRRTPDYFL
Method: (§1) Organotypic cultures of rat hippocampal slices were prepared from 20-30 day old Wistar rats and cultured with the interface method as described previously (Stoppini, et al. 1991; Bahr, et al. 1995; Zhongrin, et al. 2000). The rats were anesthetized with ketamine (100 mg/kg body weight) and decapitated and the hippocampi were dissected out and sliced into 400 um coronal sections by a McIllwain tissue chopper. Select slices with uninterrupted bright transparent neuronal layers were plated, 1-3 slices/filter, onto Millicell CM filters (Millipore, Bedford, Mass.). For the first 2 days in vitro (DIV) cultures were maintained in 25% horse serum, 50% Basal Media-Eagle (BEM), 25% Eagle's Balanced Salt Solution (EBSS), 25 mM HEPES, 1 mM glutamine, 28 mM glucose, pH 7.2, at 32° C. in a 5% CO2 humidified atmosphere. The slice cultures were then switched to 25% horse serum, 50% BEM and EBSS modified so that the potassium concentration was 2.66 mM, for another 5 DIV. After 7 DIV, the cultures were maintained in physiological potassium containing 5% horse serum medium at 35° C. for at least 20 days before any treatment was applied. When the slices were treated, the reagents were applied into the culture medium. At different time points, the slices collected with a brush were washed twice in homogenizing buffer (50 mM HEPES, pH 7.0, 10 mM β-merceptoethanol [BME], 1 mM EDTA, 1 mM EGTA, 0.1 mM phenylmethyl sulfonyl fluoride [PMSF], 2.0 mM benzamidine and 2.0 μg/ml each of aprotinin, leupeptin and pepstatin) and homogenized at 4° C. using a Teflon-glass homogenizer. The homogenate was then divided into two parts, one was centrifuged at 16000×g for 15 min and the supernatant was used to assay activities of PP-2A and PP-1. The rest of the homogenate was diluted 1:1 with a phosphatase inhibitor cocktail (20 mM β-glycerophosphate, 2 mM Na3VO4 and 100 mM NaF, pH 7.0) and either used for Western blots or centrifuged at 16000×g for 15 min and the resulting supernatant used to determine the kinase activities.
Activities of PP-2A and PP-1 were assayed towards [^32P] phosphorylase-a as a substrate as described previously (Gong, et al. 1994). The phosphatase activity was assayed in 20 μl of reaction mixture containing 50 mM Tris, pH 7.0, 10 mM BME, 0.1 mM EDTA, 7.5 mM caffeine, 7.5 ng/μl [^32P]phosphorylase-a and 0.06 mg/ml slice culture extract. The reaction was started by adding ^32P-phosphorylase-a. After incubation for 30 min at 30° C., 7 μl of the reaction mixture was spotted on to 31 ETCHR chromatography paper which had been prespotted with 10 μl stop solution (4 mM ATP+20% TCA). Then the ^32p released was separated from the protein-incorporated ^32P by paper chromatography in 5% TCA and 0.2 M NaCl, paper strips dried, cut and counted by Cerenkov radiation. A PP-1 specific inhibitor, inhibitor-1 (Hitken, et al. 1982) was included in the assays for PP-2A activity. PP-1 activity was calculated by subtracting the PP-2A activity from the total phosphorylase-a phosphatase activity (PP-1/PP-2A) assayed in the absence of inhibitor-1.

CaMKII = CaMKII activity in extracts of treated hippocampal slice cultures; assay type: cell-based, rat
Method: as §1
CaMKII activity was measured in 25 μl of buffer containing 50 mM HEPES, pH 7.5, 10 mM MgCl2, 2.0 mM CaCl2, 10 mM BME, 10 μg/ml calmodulin (CaM), 20 μM syntide (Sigma, St Louis Mo., USA), 0.06 mg/ml slice extract and 200 μM [γ^32P]ATP. The reaction was initiated by adding [γ32p] ATP. After incubation for 10 min at 30° C., 10 μl reaction mixture was removed and spotted on to phosphocellulose membrane. The membrane was then washed five times in 1% phosphoric acid to remove non-protein incorporated ^32P, dried and counted by Cerenkov radiation. The activity of PKA was determined as above except the reaction mixture contained 70 mM NaHPO4, pH 6.8, 14 mM MgCl2, 1.4 mM EDTA, 30 μM malantide (Sigma, St Louis, Mo., USA), 200 μM [γ^32p] ATP and 0.06 mg/ml slice extract.

MAPK = MAPK activity in extracts of treated hippocampal slice cultures; assay type: cell-based, rat
Method: as §1, with “The” for “Organotypic cultures of rat hippocampal slices were prepared from 20-30 day old Wistar rats and cultured with the interface method as described previously (Stoppini, et al. 1991; Bahr, et al. 1995; Zhongrin, et al. 2000). The”, “For the first 2 days in vitro (DIV) cultures were maintained in 25% horse serum, 50% Basal Media-Eagle (BEM), 25% Eagle's Balanced Salt Solution (EBSS), 25 mM HEPES, 1 mM glutamine, 28 mM glucose, pH 7.2, at 32° C. in a 5% CO2 humidified atmosphere. The slice cultures were then switched to 25% horse serum, 50% BEM and EBSS modified so that the potassium concentration was 2.66 mM, for another 5 DIV.” left out
Immobilized protein G (Pierce, Rockford, Ill.), 20 μl, was mixed in 50 mM Tris, pH 7.4, 150 mM NACl, 10 mM NaF, 1.0 mM Na3VO4, 2.0 mM EGTA, 1 mM PMSF, 5 μg/ml leupeptin, 5 μg/ml aprotinin, 2 μg/ml pepstatin, 25 μg/ml phosphoramidon. After incubation at 4° C. overnight, the mixture was centrifuged and the beads were washed three times. The beads were then resuspended in 50 mM Tris, pH 7.4, containing 10 mM MgCl2. MAPK substrate peptide (UBI, Lake Placid, N.Y.) was employed for the MAPK assay. […]

tau = test: Tau phosphorylation by radioimmuno-dot-blots and 125I-Western blots of slice homogenates; assay type: cell-based, rat; conditions: 0.3 mM glutamate, 1 h
Method: as §1, with “The” for “Organotypic cultures of rat hippocampal slices were prepared from 20-30 day old Wistar rats and cultured with the interface method as described previously (Stoppini, et al. 1991; Bahr, et al. 1995; Zhongrin, et al. 2000). The”, “For the first 2 days in vitro (DIV) cultures were maintained in 25% horse serum, 50% Basal Media-Eagle (BEM), 25% Eagle's Balanced Salt Solution (EBSS), 25 mM HEPES, 1 mM glutamine, 28 mM glucose, pH 7.2, at 32° C. in a 5% CO2 humidified atmosphere. The slice cultures were then switched to 25% horse serum, 50% BEM and EBSS modified so that the potassium concentration was 2.66 mM, for another 5 DIV.” left out
Triplicate samples of each homogenate were applied to nitrocellulose membrane (Schleicher and Schuell, Keene, N.H.) and dried at 37° C.

Structure (SMILES) | effect on PP-2A activity (PP-2A; after 0.3 mM glutamate 1 h, 10 μM Memantine or 15 μM MK801) | CaMKII activity after replacement of glutamate (CaMKII; after 0.3 mM glutamate, fresh medium with or without 10 μM Memantine or 15 μM MK801) | effect on MAP kinase activity (MAPK; after 0.3 mM glutamate, 10 μM Memantine or 15 μM MK801) | change in PP-2A activity (PP-2A; 0.3 mM glutamate, 1 h) | CaMKII activity as % of control (CaMKII; 0.3 mM glutamate, 1 h) [%] | change in CaMKII activity (CaMKII; 0.3 mM glutamate, 1 h) | change in MAPK activity (MAPK; 0.3 mM glutamate, 1 h) | phosphorylation of tau at Ser-262 (tau)
C[C@]12N[C@H](Cc3ccccc31)c1ccccc12 [MK801] | no effect | restored the CaMKII activity to normal level | no effect |  |  |  |  | 
N[C@@H](CCC(=O)O)C(=O)O [glutamate] |  |  |  | did not induce any detectable change; also recorded: not accompanied by any changes; also recorded: without any effect | ~180 | marked increase | did not induce any detectable change; also recorded: not accompanied by any changes; also recorded: without any effect | increased markedly
